Data: US20200339544A1 (JOINT STOCK COMPANY "BIOCAD", priority 2017, published 2020)
Read-outs that look alike come from different tables or passages of the source. Values belong to the compound of their own block, whether it stands above or below them.

Tests used:
[1] = target: T1, DM EGFR (DoubleMutantEGFR, L828R/T790M) (Homo sapiens, UniProt P00533, L858R/T790M); assay: Inhibition of DM EGFR kinase activity (ADP-Glo); format: biochemical; details: for IC50: inhibition of kinase activity, EGFR DM (L828R/T790M); for SI, IC50(WT)/IC50(DM): selectivity index, kinase EGFR WT vs EGFR DM
T1 construct: purchased SignalChem
Summary of the method: (§1)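 Recombinant WT or double-mutant EGFR was incubated with a solution of 0.5 mg/mL peptide substrate and 50 μM ATP for 180 minutes at 37° C. Kinase activity was detected by ADP-Glo luminescence. IC50 values came from a four-parameter logistic fit.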

[2] = General cytotoxicity on HepG2 cells; format: cell-based; details: human; general cytotoxicity, HepG2 cells, 72 hours, average of several tests
Summary of the method: (§2)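 HepG2 cells seeded at 2*10^4 cells per well and compounds added in DMEM with 2% FBS for 72 h at 37 °C. Viability read with Alamar Blue and CC50 derived as for IC50. Therapeutic index taken as HepG2 CC50 over H1975 IC50.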

HepG2 cells = assay: General cytotoxicity on HepG2 cells; format: cell-based; details: therapeutic index, CC50 HepG2 / IC50 H1975
Summary of the method: as §2

WT EGFR (Wild-Type EGFR) = target: T2, WT EGFR (Wild-Type EGFR) (Homo sapiens, UniProt P00533); assay: Inhibition of WT EGFR kinase activity (ADP-Glo); format: biochemical
T2 construct: purchased SignalChem
Summary of the method: as §1

[3] = system: A549 (lung adenocarcinoma, WT); assay: Antiproliferative activity on A549 cells (Alamar Blue); format: cell-based; details: Homo sapiens, antiproliferative test
Summary of the method: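 Cells seeded at 5*10^3/well in RPMI-1640 with 2% FBS, attached 16-18 h at 37° C, then exposed to compounds (≤1% DMSO) for 72 h. Alamar Blue added for 3-5 h; fluorescence read at 540/590 nm. IC50 from four-parameter logistic fit.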

[4] = system: HCC827 (lung adenocarcinoma, SM, exon19delE746-A750); assay: Antiproliferative activity on HCC827 cells (Alamar Blue); format: cell-based; details: Homo sapiens, antiproliferative test
Description: Antiproliferative activity of EGFR inhibitors (Tables 15 and 16) was measured in cell-based bioassay on continuous epithelial cell cultures: A549 (lung adenocarcinoma, ATCC® CRM-CCL-185™—WT), HCC827 (lung adenocarcinoma, ATCC® CRL-2868™—SM (SingleMutantEGFR, exon19delE746-A750)) and H1975 (lung adenocarcinoma, ATCC® CRL-5908™—DM (DoubleMutantEGFR, L828R/T790M)) using cell viability reagent Alamar Blue (ThermoFisher, # DAL1100). Cells were cultured in 10% FBS-supplemented (Gibco, #16140071) RPMI-1640 (PanEco, S330p) for at least 1 passage after thawing, washed with PBS and passaged in 96-well culture plates (3599, Corning) with RPMI-1640 growth medium supplemented with 2% FBS in an amount of 5*10^3 cells/well for A549, 10*10^3 cells/well for HCC827 and 15*10^3 cells/well for H1975 in 100 μL, and incubated at 37° C. in an incubator (Thermo Forma, USA) under 5% of CO2 for 16-18 h for cell attachment.
The test compounds were dissolved in DMSO in the selected range of concentrations and transferred to RPMI-1640 medium (PanEco, S330p) supplemented with 2% FBS. After adding 50 μl of the prepared dilutions to the cells, the incubation mixture contained the final concentrations of the test substances and no more than 1% DMSO. The plates were Incubated at 37° C. for 72 h. After incubation, 15 μl of Alamar Blue vital dye (ThermoFisher, # DAL1100) was added to each well. The plates were shaken on an orbital shaker (Biosan, Latvia) and further incubated for 3-5 h in a CO2 incubator (Thermo Forma, USA). Number of living cells was estimated using a plate spectrophotometer Infinite M200Pro, (Tecan, Switzerland) measuring fluorescent signal at the excitation wavelength (λEx) of 540 nm and emission wavelength (λEm) of 590 nm.
IC50 was calculated using Magellan 7.2 software (Tecan, Switzerland) approximating experimental points by four-parameter logistic model with the optimization by Levenberg-Marquardt.

[5] = system: H1975 (lung adenocarcinoma, DM, L828R/T790M); assay: Antiproliferative activity on H1975 cells (Alamar Blue); format: cell-based; details: for IC50: Homo sapiens, NCI-H1975, H1975 cells; for SI IC50(A549)/IC50(DM): selectivity index, A549 vs H1975 cells
Summary of the method: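 H1975 cells (15*10^3/well) attached 16-18 h in RPMI-1640 with 2% FBS, then exposed to compounds (≤1% DMSO final) for 72 h at 37 °C. Viability by Alamar Blue fluorescence (Ex 540/Em 590 nm) after 3-5 h; IC50 from four-parameter logistic fit.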

[6] = Chemical stability in human blood plasma; format: in vitro ADME; details: pooled human blood plasma; 10 μm; 4 hours at 37° C.; substance amount remaining
Summary of the method: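 Pooled plasma from ten healthy donors was spiked to 10 μM from a 10 mM DMSO stock and held 4 h at 37 °C. After acetonitrile protein precipitation, HPLC peak areas before and after incubation gave the percentage of compound remaining.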

[7] = Enzyme stability in human liver S9 fractions; format: in vitro ADME; details: 0.5 mg/mL pooled human liver S9 fractions; 10 μM compound; 37° C.; pH 7.4; read-out: Stability in liver S9 fractions, Clint
Description: Determination of enzyme stability.
Measuring of candidate enzyme stability enabled estimation of the stability of the compounds towards the action of liver enzymes.
Enzyme degradation rate was measured by incubating the reaction mixture in a dry block thermostat at 37° C., said reaction mixture comprising 0.5 mg/mL of pooled human liver S9 fractions (XenoTech, USA, cat # H0610), 10 μM compound, 2 mM β-nicotinamide adenine dinucleotide (Carbosynth, UK, cat # NN10871) and 4 mM magnesium chloride in 0.1 M sodium-phosphate buffer, pH=7.4. The reaction was quenched with acetonitrile (100 μL of acetonitrile/100 μL of the reaction mixture). After quenching, the samples were centrifuged at 10000 rpm for 10 minutes. Supernatant fluid was tested by chromatographic technique using Agilent1200 (Agilent, USA). We used gradient elution (1 mL/min flow rate). A graph of the logarithm of substance's peak area as a function of time was made. The dependent factor of the line corresponded to the elimination rate constant K based on which the drug's half-life T½ and intrinsic clearance CLint were calculated:
Based on the data obtained, candidate enzyme stability in human liver S9 fractions was determined (see Table 11).

[8] = average values obtained in several tests, Table 16, read-out: H1975 (DM) IC50
[9] = antiproliferative test, Table 15, read-out: IC50 H1975 (DM)

SMILES: C=CC(=O)Nc1cc(Nc2cc(C(=O)c3ccc(OCC(C)C)cc3)ccn2)c(OC)cc1N(C)CCN(C)C [EGFR_3365_77, N-(2-((2-(dimethylamino)ethyl)(methyl)amino)-5-((4-(4-isobutoxybenzoyl)pyridin-2-yl)amino)-4-methoxyphenyl) acrylamide]
- IC50 [1]: 4.97 nM
- SI, IC50(WT)/IC50(DM) [1]: 10.04
- CC50 at 72 h [2]: 8340 nM
- TI, CC50/IC50 (HepG2 cells): 33
- IC50 (WT EGFR (Wild-Type EGFR)): 49.9 nM
- IC50 [3]: 2170 nM
- IC50 [4]: 23.5 nM
- IC50 [5, 8]: 249 nM
- IC50 [5, 9]: 249 nM
- SI IC50(A549)/IC50(DM) [5]: 9

SMILES: C=CC(=O)Nc1cc(Nc2nccc(C(=O)c3ccc(N4CC[C@@H](O)C4)cc3)n2)c(OC)cc1N(C)CCN(C)C [EGFR_3365_113, (R)-N-(2-((2-(dimethylamino)ethyl)(methyl)amino)-5-((4-(4-(3-hydroxypyrrolidin-1-yl)benzoyl)pyrimidin-2-yl)amino)-4-methoxyphenyl)acrylamide]
- IC50 [1]: 2.54 nM
- SI, IC50(WT)/IC50(DM) [1]: 17.09
- CC50 at 72 h [2]: 46300 nM
- TI, CC50/IC50 (HepG2 cells): 10481
- Stability in blood plasma, % [6]: 94.0%
- Intrinsic clearance in human liver S9 fractions at 10 µM [7]: 10.5 µL/min/mg
- IC50 (WT EGFR (Wild-Type EGFR)): 43.4 nM
- IC50 [3]: 13600 nM
- IC50 [5, 8]: 4.42 nM
- IC50 [5, 9]: 4.42 nM
- SI IC50(A549)/IC50(DM) [5]: 3073

SMILES: C=CC(=O)Nc1cc(Nc2nccc(C(=O)c3ccc(N4CC[C@H](OC)C4)cc3)n2)c(OC)cc1N(C)CCN(C)C [EGFR_3365_114, (S)-N-(2-((2-(dimethylamino)ethyl)(methyl)amino)-4-methoxy-5-((4-(4-(3-methoxypyrrolidin-1-yl)benzoyl)pyrimidin-2-yl)amino)phenyl)acrylamide]
- IC50 [1]: 2.02 nM
- SI, IC50(WT)/IC50(DM) [1]: 25.37
- CC50 at 72 h [2]: 23800 nM
- TI, CC50/IC50 (HepG2 cells): 1970
- Stability in blood plasma, % [6]: 93.9%
- Intrinsic clearance in human liver S9 fractions at 10 µM [7]: 16 µL/min/mg
- IC50 (WT EGFR (Wild-Type EGFR)): 51.4 nM
- IC50 [3]: 14200 nM
- IC50 [5, 8]: 12.1 nM
- IC50 [5, 9]: 12.1 nM
- SI IC50(A549)/IC50(DM) [5]: 1175

The next lines start with results.

- IC50 [1]: 5.53 nM
- SI, IC50(WT)/IC50(DM) [1]: 26.20
- IC50 (WT EGFR (Wild-Type EGFR)): 145 nM
- IC50 [3]: 4420 nM
- IC50 [4]: 13.9 nM
- IC50 [5, 8]: 34.2 nM
- IC50 [5, 9]: 34.2 nM
SMILES: C=CC(=O)Nc1cc(Nc2cc(C(=O)c3ccc(N(CC)CC)cc3)ccn2)c(OC)cc1N(C)CCN(C)C
- CC50 at 72 h [2]: 7820 nM
- TI, CC50/IC50 (HepG2 cells): 229
- SI IC50(A549)/IC50(DM) [5]: 129

- IC50 [1]: 1.99 nM
- SI, IC50(WT)/IC50(DM) [1]: 63.44
- Stability in blood plasma, % [6]: 94.6%
- Intrinsic clearance in human liver S9 fractions at 10 µM [7]: 19.8 µL/min/mg
- IC50 (WT EGFR (Wild-Type EGFR)): 126 nM
- IC50 [3]: 12800 nM
- IC50 [5, 8]: 19.1 nM
- IC50 [5, 9]: 19.1 nM
SMILES: C=CC(=O)Nc1cc(Nc2nccc(C(=O)c3ccc(N4CC[C@@H](OC)C4)cc3)n2)c(OC)cc1N(C)CCN(C)C [EGFR_3365_115, (R)-N-(2-((2-(dimethylamino)ethyl)(methyl)amino)-4-methoxy-5-((4-(4-(3-methoxypyrrolidin-1-yl)benzoyl)pyrimidin-2-yl)amino)phenyl)acrylamide]
- CC50 at 72 h [2]: 22000 nM
- TI, CC50/IC50 (HepG2 cells): 1154
- SI IC50(A549)/IC50(DM) [5]: 670

- IC50 [1]: 2.65 nM
- SI, IC50(WT)/IC50(DM) [1]: 19.58
- Stability in blood plasma, % [6]: 87.3%
- Intrinsic clearance in human liver S9 fractions at 10 µM [7]: 9.2 µL/min/mg
- IC50 (WT EGFR (Wild-Type EGFR)): 52 nM
- IC50 [3]: 7190 nM
- IC50 [5, 8]: 1.18 nM
- IC50 [5, 9]: 1.18 nM
SMILES: C=CC(=O)Nc1cc(Nc2nccc(C(=O)c3ccc(N4CCCC4)cc3OC)n2)c(OC)cc1N(C)CCN(C)C [EGFR_3365_123, N-(2-((2-(dimethylamino)ethyl)(methyl)amino)-4-methoxy-5-((4-(2-methoxy-4-(pyrrolidin-1-yl)benzoyl)pyrimidin-2-yl)amino)phenyl)acrylamide]
- CC50 at 72 h [2]: 40000 nM
- TI, CC50/IC50 (HepG2 cells): 33959
- SI IC50(A549)/IC50(DM) [5]: 6105

- IC50 [1]: 3.57 nM
- SI, IC50(WT)/IC50(DM) [1]: 21.41
- Stability in blood plasma, % [6]: 90.7%
- Intrinsic clearance in human liver S9 fractions at 10 µM [7]: 22.2 µL/min/mg
- IC50 (WT EGFR (Wild-Type EGFR)): 76.3 nM
- IC50 [3]: 19700 nM
- IC50 [5, 8]: 66.3 nM
- IC50 [5, 9]: 66.3 nM
SMILES: C=CC(=O)Nc1cc(Nc2nccc(C(=O)c3c(OC)cc(OC)cc3OC)n2)c(OC)cc1N(C)CCN(C)C [EGFR_3365_124, N-(2-((2-(dimethylamino)ethyl)(methyl)amino)-4-methoxy-5-((4-(2,4,6-trimethoxybenzoyl)pyrimidin-2-yl)amino)phenyl)acrylamide]
- CC50 at 72 h [2]: > 50000 nM
- TI, CC50/IC50 (HepG2 cells): >754
- SI IC50(A549)/IC50(DM) [5]: 298
